The values below come from patent US11058690B2, “Use of cytochrome bc1 complex inhibitor in preparing pharmaceutical composition” (BEIJING WEILANZHIYUAN MEDICAL TECHNOLOGY CO., LTD., priority 2017, dated 2021).

This test deals with MLC20. The test is described as follows: phosphorylation of MLC20 in rat uterine smooth muscle cells induced by PGF2α (Western blotting). Type of test: cell-based. The conditions noted are these: 5 μM and 10 μM pretreatment; PGF2α stimulation 5 minutes. An excerpt: A tissue mass culture method was adopted: rats treated with diethylstilbestrol were sacrificed through dislocation and soak in 75% alcohol for disinfection, open the abdominal cavity under an aseptic condition, separate the uterus, transfer it to a plate, cut open the uterus to remove the outer membrane of the uterus, gently scrape off the inner membrane of the uterus with a blade, gently peel off the outer membrane of the uterus with a tweezer, cut the intact smooth muscle into small pieces of less than 1×1×1 mm^3, uniformly stick them to the wall of a culture bottle, add a culture solution with the bottom up, gently turn over after culture at 5% CO2 and 37° C. for 3-4 hours, and soak in an RPMI-1640 culture solution (containing 20% calf bovine serum) for about one week until the cells can be connected into pieces to form monolayer cultured cells. At this time, the culture solution in the bottle was poured out, the tissue masses in the bottle were washed twice with PBS and removed, and a proper amount of 0.25% trypsin was added. Calf bovine serum was added to stop the reaction when most cells contracted and became round under microscope, the liquid was poured out, and the cells were washed twice with PBS and added with a proper amount of RPMI-1640, and the eluted cells were gently washed with a pipette to prepare a cell suspension for later use. […]
A general note: Immunoblotting shows a protein as a band on a membrane.

With `CO/C=C(/C(=O)OC)c1ccccc1COc1cc(C(F)(F)F)nc(OC(C)C)n1` [FAPM, fluacrypyrim], the “phosphorylation of MLC20 (gray analysis, words)” value is given as “significantly inhibited”.
